Data on 5 compounds can be found in patent US20260176320A1, “MODULATORS OF G-PROTEIN COUPLED RECEPTORS” (priority 2018, published 2026).

Read-outs that look alike come from different tables or passages of the source.

The Emax is the maximal effect, on the per cent scale that the assay sets.

Format in all cases: cell-based
In assay [1] the target is T1, GLP-1R (Homo sapiens, UniProt P43220). Description: HitHunter cAMP assay (GLP-1R). The conditions noted are these: cAMP; for Emax: read-out: (Emax) GLP-1R. A digest of the protocol:
(§1)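 Suspension cells (10,000/well) in HBSS with 10 mM HEPES, 625 μM IBMX, 0.2% BSA exposed to 22-point 2-fold agonist series in duplicate for 30 min at room temperature. cAMP measured by antibody immunocompetition with overnight development, luminescence read-out.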
A general note: cAMP levels reflect the balance of adenylyl cyclase and phosphodiesterase activity.

The target in a further assay is T2, GIP-R (Homo sapiens, UniProt P48546).
T2 sequence (P48546 22-466): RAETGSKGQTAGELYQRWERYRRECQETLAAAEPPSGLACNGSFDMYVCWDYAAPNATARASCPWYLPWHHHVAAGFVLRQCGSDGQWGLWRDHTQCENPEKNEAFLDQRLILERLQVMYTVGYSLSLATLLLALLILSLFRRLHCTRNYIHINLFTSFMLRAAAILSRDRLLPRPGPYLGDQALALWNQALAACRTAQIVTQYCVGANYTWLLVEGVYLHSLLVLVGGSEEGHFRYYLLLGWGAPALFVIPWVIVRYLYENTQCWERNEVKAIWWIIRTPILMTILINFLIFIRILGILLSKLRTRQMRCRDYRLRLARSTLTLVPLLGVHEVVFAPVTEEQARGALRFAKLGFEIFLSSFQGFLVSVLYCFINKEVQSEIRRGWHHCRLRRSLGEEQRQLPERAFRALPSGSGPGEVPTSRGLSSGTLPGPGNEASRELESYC
Description: HitHunter cAMP assay (GIP-R). The conditions noted are these: cAMP; for Emax: read-out: (Emax) GIP-R. A digest of the protocol:
as §1

Assay [2] deals with T1, GLP-1R. Description: PathHunter β-arrestin assay. How it is done: The effects of the chemical entities described herein on β-arrestin signaling and associated downstream processes (e.g., those delineated above) can be assessed using conventional methods, e.g., PathHunter β-arrestin Assay for determining β-arresting coupling (see Examples section). […] It has been shown that b-arrestin coupling is a key strep in receptor internalization and subsequent de-sensitization and attenuation of signaling.
5,000 cells were seeded in appropriate cell culture media per well in a low volume 384-well tissue culture plate. The assay plate was incubated with cells overnight at 37° C. and 5% CO2. The media was removed, and 5 μL of appropriate cell culture media containing 0.2% BSA was added. Agonist serial dilutions in a separate 384 well dilution plate in a 22-point series of 2× dilutions of agonist in DMSO were performed as follows. 80 μL of the highest concentration of Agonist/DMSO was added to well No. 1. 40 μL was removed from well No. 1, and added to well No. 2, followed by gentle mixing. […] This process was repeated until well No. 22. Additional serial dilutions for additional agonists were set up in a similar manner. 100 nL of each 2× agonist serial dilution was added in duplicate to the designated agonist rows of the assay plate using the Labcyte ECHO. Assay plate was incubated for 90 minutes at 37° C. and 5% CO2. A stock of Working Detection Solution in a separate 15 ml polypropylene tube was prepared by mixing 19 parts of Cell Assay Buffer, 5 parts of Substrate Reagent 1, 1 part Substrate Reagent 2. […] Plates were spun down briefly. Assay plate was incubated for 3 hour at room temperature in the dark for the immunocompetition reaction to occur. Samples were read on Tecan i-control plate reader using luminescence mode with 100 ms integration time. Data analysis was performed using GraphPad Prism.

[3] abbreviates: Table 3, read-out: EC50 GLP-1R/nM.
Setting [4] is: Table 3A, read-out: EC50 GLP-1R/nM.
The mark [5] stands for this setting: Table 3, read-out: EC50 GIP-R/nM.
[6] abbreviates: Table 3A, read-out: EC50 GIP-R/nM.
[7] abbreviates: PathHunter β-arrestin assay, read-out: β-arrestin activity EC50.

T1 sequence (P43220 24-463): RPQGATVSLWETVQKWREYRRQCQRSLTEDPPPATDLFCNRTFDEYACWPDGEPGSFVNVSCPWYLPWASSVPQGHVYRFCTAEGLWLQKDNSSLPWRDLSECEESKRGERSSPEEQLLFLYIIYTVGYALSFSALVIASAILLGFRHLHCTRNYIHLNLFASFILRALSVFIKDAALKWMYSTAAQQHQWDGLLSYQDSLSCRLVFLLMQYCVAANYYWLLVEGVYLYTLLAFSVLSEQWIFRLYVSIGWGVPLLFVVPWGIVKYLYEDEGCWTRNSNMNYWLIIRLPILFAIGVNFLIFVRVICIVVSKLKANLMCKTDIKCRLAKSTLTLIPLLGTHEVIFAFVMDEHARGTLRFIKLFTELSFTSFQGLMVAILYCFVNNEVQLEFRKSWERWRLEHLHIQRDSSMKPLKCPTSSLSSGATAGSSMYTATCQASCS

With `CCCCCCCCCCCCCCCC(=O)N[C@@H](CCC(=O)NCCCC[C@H](NC(=O)[C@H](CO)NC(=O)[C@@H]1CCCN1C(=O)[C@@H]1CCCN1C(=O)[C@@H]1CCCN1C(=O)[C@H](C)NC(=O)CNC(=O)[C@H](CO)NC(=O)[C@H](CO)NC(=O)[C@@H]1CCCN1C(=O)CNC(=O)CNC(=O)[C@H](C)NC(=O)[C@H](CC(C)C)NC(=O)[C@H](CC(C)C)NC(=O)[C@H](Cc1c[nH]c2ccccc12)NC(=O)[C@H](CC(N)=O)NC(=O)[C@@H](NC(=O)[C@H](Cc1ccccc1)NC(=O)[C@H](CCC(=O)O)NC(=O)C(C)(C)NC(=O)[C@H](C)NC(=O)[C@H](C)NC(=O)[C@H](CCC(N)=O)NC(=O)[C@H](CCCCN)NC(=O)[C@H](CC(=O)O)NC(=O)[C@H](CC(C)C)NC(=O)[C@H](Cc1ccc(O)cc1)NC(=O)[C@@H](NC(=O)[C@H](CO)NC(=O)[C@H](Cc1ccc(O)cc1)NC(=O)[C@H](CC(=O)O)NC(=O)[C@H](CO)NC(=O)[C@@H](NC(=O)[C@H](Cc1ccccc1)NC(=O)[C@@H](NC(=O)CNC(=O)[C@H](CCC(=O)O)NC(=O)CSCC(=O)NCCN1C[C@H](OC)CC1=O)[C@@H](C)O)[C@@H](C)O)[C@@H](C)CC)C(C)C)C(N)=O)C(=O)O` [Compound 8], the EC50 on GLP-1R [1] (EC50 GLP-1R/nM, Table 3) was under 0.1 nM; on GLP-1R [1] (EC50 GLP-1R/nM, Table 3A), under 0.1 nM; at GIP-R (EC50 GIP-R/nM, Table 3) it was 1 to 10 nM; on GIP-R (EC50 GIP-R/nM, Table 3A), 1 to 10 nM; on GLP-1R [2], over 1000 nM. Also, the Emax came out at 90% at GLP-1R [1] (Table 3), 90% on GLP-1R [1] (Table 3A), 57% on GIP-R (Table 3) and 57% at GIP-R (Table 3A).
With `CCCCCCCCCCCCCCCC(=O)N[C@@H](CCC(=O)NCCCC[C@H](NC(=O)[C@H](CO)NC(=O)[C@@H]1CCCN1C(=O)[C@@H]1CCCN1C(=O)[C@@H]1CCCN1C(=O)[C@H](C)NC(=O)CNC(=O)[C@H](CO)NC(=O)[C@H](CO)NC(=O)[C@@H]1CCCN1C(=O)CNC(=O)CNC(=O)[C@H](C)NC(=O)[C@H](CC(C)C)NC(=O)[C@H](CC(C)C)NC(=O)[C@H](Cc1c[nH]c2ccccc12)NC(=O)[C@H](CC(N)=O)NC(=O)[C@@H](NC(=O)[C@H](Cc1ccccc1)NC(=O)[C@H](CCC(=O)O)NC(=O)C(C)(C)NC(=O)[C@H](C)NC(=O)[C@H](C)NC(=O)[C@H](CCC(N)=O)NC(=O)[C@H](CCCCN)NC(=O)[C@H](CC(=O)O)NC(=O)[C@H](CC(C)C)NC(=O)[C@H](Cc1ccc(O)cc1)NC(=O)[C@@H](NC(=O)[C@H](CO)NC(=O)[C@H](Cc1ccc(O)cc1)NC(=O)[C@H](CC(=O)O)NC(=O)[C@H](CO)NC(=O)[C@@H](NC(=O)[C@H](Cc1ccccc1)NC(=O)[C@@H](NC(=O)CNC(=O)[C@H](CCC(=O)O)NC(=O)CCNC(=O)CCN1CCCCC1=O)[C@@H](C)O)[C@@H](C)O)[C@@H](C)CC)C(C)C)C(N)=O)C(=O)O` [Compound 9], the Emax on GLP-1R [1] (Table 3) was 100%; at GLP-1R [1] (Table 3A), 100%; at GIP-R (Table 3) it was 48%; at GIP-R (Table 3A), 48%. Also, the EC50 at GLP-1R [1] (setting [3]) is under 0.1 nM; on GLP-1R [1] (setting [4]), under 0.1 nM; at GIP-R (setting [5]) it was 1 to 10 nM; at GIP-R (setting [6]), 1 to 10 nM; on GLP-1R [2] (setting [7]) it was over 1000 nM.
In the case of `CCCCCCCCCCCCCCCC(=O)N[C@@H](CCC(=O)NCCCC[C@H](NC(=O)[C@H](CO)NC(=O)[C@@H]1CCCN1C(=O)[C@@H]1CCCN1C(=O)[C@@H]1CCCN1C(=O)[C@H](C)NC(=O)CNC(=O)[C@H](CO)NC(=O)[C@H](CO)NC(=O)[C@@H]1CCCN1C(=O)CNC(=O)CNC(=O)[C@H](C)NC(=O)[C@H](CC(C)C)NC(=O)[C@H](CC(C)C)NC(=O)[C@H](Cc1c[nH]c2ccccc12)NC(=O)[C@H](CC(N)=O)NC(=O)[C@@H](NC(=O)[C@H](Cc1ccccc1)NC(=O)[C@H](CCC(=O)O)NC(=O)C(C)(C)NC(=O)[C@H](C)NC(=O)[C@H](C)NC(=O)[C@H](CCC(N)=O)NC(=O)[C@H](CCCCN)NC(=O)[C@H](CC(=O)O)NC(=O)[C@H](CC(C)C)NC(=O)[C@H](Cc1ccc(O)cc1)NC(=O)[C@@H](NC(=O)[C@H](CO)NC(=O)[C@H](Cc1ccc(O)cc1)NC(=O)[C@H](CC(=O)O)NC(=O)[C@H](CO)NC(=O)[C@@H](NC(=O)[C@H](Cc1ccccc1)NC(=O)[C@@H](NC(=O)CNC(=O)[C@H](CCC(=O)O)NC(=O)CSCC(=O)NCCN1CCCC(C)(C)C1=O)[C@@H](C)O)[C@@H](C)O)[C@@H](C)CC)C(C)C)C(N)=O)C(=O)O` [Compound 10], the EC50 on GLP-1R [1] (EC50 GLP-1R/nM, Table 3) was 0.1 to 1 nM; at GLP-1R [1] (EC50 GLP-1R/nM, Table 3A), 0.1 to 1 nM; at GIP-R (EC50 GIP-R/nM, Table 3), 1 to 10 nM; at GIP-R (EC50 GIP-R/nM, Table 3A), 1 to 10 nM; on GLP-1R [2] it was over 1000 nM. The Emax stood at 95% at GLP-1R [1] (Table 3), 95% on GLP-1R [1] (Table 3A), 32% on GIP-R (Table 3) and 32% on GIP-R (Table 3A).
As to `CCCCCCCCCCCCCCCC(=O)N[C@@H](CCC(=O)NCCCC[C@H](NC(=O)[C@H](CO)NC(=O)[C@@H]1CCCN1C(=O)[C@@H]1CCCN1C(=O)[C@@H]1CCCN1C(=O)[C@H](C)NC(=O)CNC(=O)[C@H](CO)NC(=O)[C@H](CO)NC(=O)[C@@H]1CCCN1C(=O)CNC(=O)CNC(=O)[C@H](C)NC(=O)[C@H](CC(C)C)NC(=O)[C@H](CC(C)C)NC(=O)[C@H](Cc1c[nH]c2ccccc12)NC(=O)[C@H](CC(N)=O)NC(=O)[C@@H](NC(=O)[C@H](Cc1ccccc1)NC(=O)[C@H](CCC(=O)O)NC(=O)C(C)(C)NC(=O)[C@H](C)NC(=O)[C@H](C)NC(=O)[C@H](CCC(N)=O)NC(=O)[C@H](CCCCN)NC(=O)[C@H](CC(=O)O)NC(=O)[C@H](CC(C)C)NC(=O)[C@H](Cc1ccc(O)cc1)NC(=O)[C@@H](NC(=O)[C@H](CO)NC(=O)[C@H](Cc1ccc(O)cc1)NC(=O)[C@H](CC(=O)O)NC(=O)[C@H](CO)NC(=O)[C@@H](NC(=O)[C@H](Cc1ccccc1)NC(=O)[C@@H](NC(=O)CNC(=O)[C@H](CCC(=O)O)NC(=O)CSCC(=O)NCCN1CC[C@@H](OC)C1=O)[C@@H](C)O)[C@@H](C)O)[C@@H](C)CC)C(C)C)C(N)=O)C(=O)O` [Compound 11], the EC50 is 0.1 to 1 nM on GLP-1R [1] (EC50 GLP-1R/nM, Table 3); 0.1 to 1 nM on GLP-1R [1] (EC50 GLP-1R/nM, Table 3A); 1 to 10 nM at GIP-R (EC50 GIP-R/nM, Table 3); 1 to 10 nM on GIP-R (EC50 GIP-R/nM, Table 3A); over 1000 nM at GLP-1R [2]. For the same compound, the Emax was determined as 96% on GLP-1R [1] (Table 3), 96% at GLP-1R [1] (Table 3A), 39% at GIP-R (Table 3) and 39% on GIP-R (Table 3A).
For `CCCCCCCCCCCCCCCC(=O)N[C@@H](CCC(=O)NCCCC[C@H](NC(=O)[C@H](CO)NC(=O)[C@@H]1CCCN1C(=O)[C@@H]1CCCN1C(=O)[C@@H]1CCCN1C(=O)[C@H](C)NC(=O)CNC(=O)[C@H](CO)NC(=O)[C@H](CO)NC(=O)[C@@H]1CCCN1C(=O)CNC(=O)CNC(=O)[C@H](C)NC(=O)[C@H](CC(C)C)NC(=O)[C@H](CC(C)C)NC(=O)[C@H](Cc1c[nH]c2ccccc12)NC(=O)[C@H](CC(N)=O)NC(=O)[C@@H](NC(=O)[C@H](Cc1ccccc1)NC(=O)[C@H](CCC(=O)O)NC(=O)C(C)(C)NC(=O)[C@H](C)NC(=O)[C@H](C)NC(=O)[C@H](CCC(N)=O)NC(=O)[C@H](CCCCN)NC(=O)[C@H](CC(=O)O)NC(=O)[C@H](CC(C)C)NC(=O)[C@H](Cc1ccc(O)cc1)NC(=O)[C@@H](NC(=O)[C@H](CO)NC(=O)[C@H](Cc1ccc(O)cc1)NC(=O)[C@H](CC(=O)O)NC(=O)[C@H](CO)NC(=O)[C@@H](NC(=O)[C@H](Cc1ccccc1)NC(=O)[C@@H](NC(=O)CNC(=O)[C@H](CCC(=O)O)NC(=O)CSCC(=O)NCCN1CC(=O)N(C)CC1=O)[C@@H](C)O)[C@@H](C)O)[C@@H](C)CC)C(C)C)C(N)=O)C(=O)O` [Compound 12], the Emax on GLP-1R [1] (Table 3) was determined as 91%; on GLP-1R [1] (Table 3A) it was 91%; at GIP-R (Table 3), 85%; at GIP-R (Table 3A) it was 85%. For the same compound, the EC50 on GLP-1R [1] (setting [3]) is 1 to 10 nM; on GLP-1R [1] (setting [4]), 1 to 10 nM; at GIP-R (setting [5]), 0.1 to 1 nM; at GIP-R (setting [6]) it was 0.1 to 1 nM; on GLP-1R [2] (setting [7]) it was over 1000 nM.
